Reference: PubChem BioAssay (NCI)
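Each compound was tested at five concentrations against cells in 96-well plates for 48 hours. Definition used: TGI = concentration required for complete inhibition of growth.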

How the values were obtained:
Assay in all cases: inhibition of tumour cell growth, NCI panel, 48 h
[1] = test system: KM12 colon
[2] = test system: SK-MEL-28 melanoma
[3] = test system: SNB-19 CNS
[4] = test system: CAKI-1 renal
[5] = test system: SK-MEL-5 melanoma
[6] = test system: A498 renal
[7] = test system: OVCAR-8 ovarian
[8] = test system: RXF 393 renal
[9] = test system: SN12C renal
[10] = test system: EKVX NSCLC

Measured: TGI

O=c1[nH]c(=S)[nH]c2c1sc(=S)n2-c1ccccc1
> 100 µM: all assays above
